Data taken from patent US6583156B1 (Vernalis Research Limited, priority 1998, dated 2003).
One block for each molecule: values may come before it.

Key:
[1] = test system: haloperidol-induced hypolocomotion; assay: Haloperidol-induced hypolocomotion model; assay type: in vivo; details: mice, 10 mg/kg intraperitoneally, haloperidol 0.2 mg/kg
Description: This approach is also considered a valid method for screening drugs with potential antiparkinsonian effects. Thus, the ability of novel adenosine antagonists to block haloperidol-induced deficits in locomotor activity in mice can be used to assess both in vivo and potential antiparkinsonian efficacy.
Female TO mice (25-30 g) obtained from TUCK, UK, are used for all experiments. Animals are housed in groups of 8 [cage size−40 (width)×40 (length)×20 (height)cm] under 12 hr light/dark cycle (lights on 08:00 hr), in a temperature (20±2° C.) and humidity (55±15%) controlled environment. Animals have free access to food and water, and are allowed at least 7 days to acclimatize after delivery before experimental use.
Liquid injectable haloperidol (1 ml Serenance ampoules from Baker Norton, Harlow, Essex, each containing haloperidol BP 5 mg, batch # P424) are diluted to a final concentration of 0.02 mg/ml using saline. Test compounds are typically prepared as aqueous suspensions in 8% Tween. All compounds are administered intraperitoneally in a volume of 10 ml/kg.
1.5 hours before testing, mice are administered 0.2 mg/kg haloperidol, a dose that reduces baseline locomotor activity by at least 50%. […] Horizontal locomotor activity is determined by placing the cages within a frame containing a 3×6 array of photocells linked to a computer, which tabulates beam breaks. […]

catalepsy = details: cited from earlier work
[2] = cited from earlier work
[3] = target: human adenosine A2A receptors (Homo sapiens, UniProt P29274); assay: Binding affinities at hA2A receptors, displacement of [3H]-CGS 21680; details: in vitro binding, radioligand [3H]-CGS 21680
Chain of human adenosine A2A receptors (P29274 whole entry): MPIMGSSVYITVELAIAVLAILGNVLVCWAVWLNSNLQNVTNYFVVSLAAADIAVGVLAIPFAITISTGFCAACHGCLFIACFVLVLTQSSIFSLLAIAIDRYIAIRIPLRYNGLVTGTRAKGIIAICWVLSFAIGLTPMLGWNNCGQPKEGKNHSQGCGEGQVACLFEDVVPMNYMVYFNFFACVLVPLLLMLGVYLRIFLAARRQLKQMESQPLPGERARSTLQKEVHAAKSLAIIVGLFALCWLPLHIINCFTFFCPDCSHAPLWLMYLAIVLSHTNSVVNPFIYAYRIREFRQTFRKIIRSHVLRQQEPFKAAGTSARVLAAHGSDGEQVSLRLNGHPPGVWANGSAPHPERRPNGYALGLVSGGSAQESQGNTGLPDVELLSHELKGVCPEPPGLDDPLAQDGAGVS
Description: The compounds were examined in an assay measuring in vitro binding to human adenosine A2A receptors by determining the displacement of the adenosine A2A receptor selective radioligand [^3H]-CGS 21680 using standard techniques.

melting point: > 250 °C
SMILES: Oc1cc(C(O)C2CCCCC2)c2ccccc2n1 (stereo not drawn) [Example 86, α-Cyclohexyl-2-hydroxy-4-quinolinemethanol]
reversal of haloperidol-induced hypolocomotion [1]: significantly reversed

SMILES: CCCn1c(=O)c2c(nc(/C=C/c3ccc(OC)c(OC)c3)n2C)n(CCC)c1=O [KF 17837, (E)-8-(3,4-dimethoxystyryl)-1,3-dipropyl-7-methylxanthine]
anticataleptic effects of a subthreshold dose of L-DOPA plus benserazide (catalepsy; in vivo): potentiated
catalepsy induced by haloperidol and reserpine (catalepsy; in vivo): reduced
cataleptic responses induced by intracerebroventricular CGS 21680 (catalepsy; oral administration): significantly ameliorated

SMILES: Cn1c(=O)c2[nH]cnc2n(C)c1=O [theophylline, 1,3-dimethylxanthine]
mean objective disability scores ([2]; 15 Parkinsonian patients, up to 12 weeks, 150 mg/day): significant improvements
serum theophylline levels ([2]; slow release oral preparation 150 mg/day, after one week, Parkinsonian patients): 4.44 mg/L

melting point: 119.5 to 120.8 °C
Ki [3]: 1.92 µM
SMILES: OC(c1ccccc1F)c1cc(C(F)(F)F)nc2c(C(F)(F)F)cccc12 (stereo not drawn) [Example 22, 2,8-Bis(trifluoromethyl)-α-(2-fluorophenyl)-4-quinolinemethanol]
